In ChEMBL document CHEMBL1122713, “Isomeric N-methyl-7-deazaguanines: synthesis, structural assignment, and inhibitory activity on xanthine oxidase” (J Med Chem, 1984) one finds Ki data, which are given here for four compounds.

Structures are written as SMILES.

As usually defined, the Ki is the dissociation constant of the complex between target and ligand, obtained from inhibition or displacement. A high value points to a looser hold on the target.

Sequence of Xanthine dehydrogenase/oxidase (P80457 whole entry): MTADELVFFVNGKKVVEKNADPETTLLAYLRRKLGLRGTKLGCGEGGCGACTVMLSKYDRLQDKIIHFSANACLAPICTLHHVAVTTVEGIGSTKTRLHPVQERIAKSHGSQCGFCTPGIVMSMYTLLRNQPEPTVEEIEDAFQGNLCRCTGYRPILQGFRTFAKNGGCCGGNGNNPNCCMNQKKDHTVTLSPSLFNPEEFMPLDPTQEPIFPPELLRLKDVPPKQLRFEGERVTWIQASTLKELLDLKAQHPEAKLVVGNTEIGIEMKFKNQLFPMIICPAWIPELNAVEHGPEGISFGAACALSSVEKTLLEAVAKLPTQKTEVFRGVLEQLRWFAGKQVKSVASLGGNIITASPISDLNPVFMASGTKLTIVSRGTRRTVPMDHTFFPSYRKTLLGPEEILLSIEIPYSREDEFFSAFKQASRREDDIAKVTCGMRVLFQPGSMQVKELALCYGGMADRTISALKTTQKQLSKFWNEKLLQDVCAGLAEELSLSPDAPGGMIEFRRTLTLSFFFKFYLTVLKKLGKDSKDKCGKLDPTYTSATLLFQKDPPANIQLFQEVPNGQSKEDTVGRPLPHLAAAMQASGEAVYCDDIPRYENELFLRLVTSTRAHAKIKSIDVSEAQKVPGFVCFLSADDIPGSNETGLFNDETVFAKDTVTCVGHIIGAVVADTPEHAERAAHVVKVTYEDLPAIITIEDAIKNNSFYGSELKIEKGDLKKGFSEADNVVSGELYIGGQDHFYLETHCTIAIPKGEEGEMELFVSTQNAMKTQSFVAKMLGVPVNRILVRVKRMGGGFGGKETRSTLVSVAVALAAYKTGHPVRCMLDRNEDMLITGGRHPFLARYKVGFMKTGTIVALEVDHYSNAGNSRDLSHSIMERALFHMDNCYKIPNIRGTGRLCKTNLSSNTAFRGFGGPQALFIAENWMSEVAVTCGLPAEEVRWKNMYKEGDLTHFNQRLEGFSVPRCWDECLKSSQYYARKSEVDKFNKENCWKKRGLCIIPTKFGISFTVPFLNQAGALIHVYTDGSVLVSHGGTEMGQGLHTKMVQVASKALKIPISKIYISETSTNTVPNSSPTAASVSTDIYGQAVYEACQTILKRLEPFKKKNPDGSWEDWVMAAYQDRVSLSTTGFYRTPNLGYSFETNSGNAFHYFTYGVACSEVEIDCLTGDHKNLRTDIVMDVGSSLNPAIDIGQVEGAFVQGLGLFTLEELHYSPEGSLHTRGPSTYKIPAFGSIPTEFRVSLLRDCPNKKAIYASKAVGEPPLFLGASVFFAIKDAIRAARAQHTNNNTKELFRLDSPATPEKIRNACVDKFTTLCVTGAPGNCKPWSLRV

This experiment addresses Xanthine dehydrogenase/oxidase (Bos taurus, UniProt P80457). Kind of experiment: Compound is evaluated for competitive inhibition against xanthine oxidase from cow's milk.
`Cn1c(N)nc(O)c2ccnc1-2` registered a Ki of 4.5 µM.
Compound `Cn1ccc2c(=O)[nH]c(N)nc21` registered a Ki of 3 µM.
The compound `Cn1c(N)nc2nccc-2c1O` had a Ki of 40 µM.
In turn, `Nc1nc2c(c(=O)[nH]1)CC=N2` [7-DEAZAGUANINE] displayed a Ki of 3 µM.
